19 molecules from US20230138851A1, “NOVEL ALKYNE DERIVATIVES” (CARNA BIOSCIENCES, INC., priority 2020, published 2023) can be followed below.

Format in all cases: biochemical
Assay [1] has as its target T1, DYRK3 (Homo sapiens, UniProt O43781).
T1 construct: purchased Carna Biosciences, Inc. 04-133
T1 sequence (O43781 1-588): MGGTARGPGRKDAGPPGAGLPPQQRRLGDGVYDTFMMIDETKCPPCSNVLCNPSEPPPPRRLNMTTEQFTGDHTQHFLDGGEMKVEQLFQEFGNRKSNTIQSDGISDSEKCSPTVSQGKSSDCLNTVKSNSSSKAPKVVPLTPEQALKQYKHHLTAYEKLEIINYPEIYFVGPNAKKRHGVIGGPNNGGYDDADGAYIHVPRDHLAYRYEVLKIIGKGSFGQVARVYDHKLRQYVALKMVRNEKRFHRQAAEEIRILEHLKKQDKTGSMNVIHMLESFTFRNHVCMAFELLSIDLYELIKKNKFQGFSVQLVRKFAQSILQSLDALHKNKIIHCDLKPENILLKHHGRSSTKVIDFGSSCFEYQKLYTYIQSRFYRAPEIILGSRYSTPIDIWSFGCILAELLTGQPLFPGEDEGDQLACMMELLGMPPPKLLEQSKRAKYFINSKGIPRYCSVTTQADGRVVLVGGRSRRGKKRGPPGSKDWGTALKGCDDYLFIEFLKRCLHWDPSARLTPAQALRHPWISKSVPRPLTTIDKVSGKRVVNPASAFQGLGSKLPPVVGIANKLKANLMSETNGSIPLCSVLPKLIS
In words: Inhibition test on activity of DYRK family, mobility shift assay (MSA), DYRK3. The note with it: ATP 20 μM, FITC-labeled DYRKtide peptide substrate, room temperature 1 hour; read-out: Inhibitory Activity 3 (IC50 against DYRK3). In outline:
(§1)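 FITC-DYRKtide phosphorylation in 20 mM HEPES pH 7.5 with MgCl2; ATP in the substrate mix was 100 μM (DYRK1A), 200 μM (DYRK1B), 40 μM (DYRK2) or 20 μM (DYRK3). Reactions ran 1 h at room temperature; inhibition from P/(P+S) versus blank and DMSO control, IC50 by regression on log concentration.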

The target of assay [2] is T2, DYRK1A (Homo sapiens, UniProt Q13627).
T2 construct: purchased Carna Biosciences, Inc. 04-130
In words: Inhibition test on activity of DYRK family, mobility shift assay (MSA), DYRK1A. The note with it: ATP 100 μM, FITC-labeled DYRKtide peptide substrate, room temperature 1 hour; for IC50: read-out: Inhibitory Activity 1a (IC50 against DYRK1A). The procedure, abridged: as §1

Assay [3] deals with T3, DYRK2 (Homo sapiens, UniProt Q92630).
T3 construct: purchased Carna Biosciences, Inc. 04-132
T3 sequence (Q92630 1-601): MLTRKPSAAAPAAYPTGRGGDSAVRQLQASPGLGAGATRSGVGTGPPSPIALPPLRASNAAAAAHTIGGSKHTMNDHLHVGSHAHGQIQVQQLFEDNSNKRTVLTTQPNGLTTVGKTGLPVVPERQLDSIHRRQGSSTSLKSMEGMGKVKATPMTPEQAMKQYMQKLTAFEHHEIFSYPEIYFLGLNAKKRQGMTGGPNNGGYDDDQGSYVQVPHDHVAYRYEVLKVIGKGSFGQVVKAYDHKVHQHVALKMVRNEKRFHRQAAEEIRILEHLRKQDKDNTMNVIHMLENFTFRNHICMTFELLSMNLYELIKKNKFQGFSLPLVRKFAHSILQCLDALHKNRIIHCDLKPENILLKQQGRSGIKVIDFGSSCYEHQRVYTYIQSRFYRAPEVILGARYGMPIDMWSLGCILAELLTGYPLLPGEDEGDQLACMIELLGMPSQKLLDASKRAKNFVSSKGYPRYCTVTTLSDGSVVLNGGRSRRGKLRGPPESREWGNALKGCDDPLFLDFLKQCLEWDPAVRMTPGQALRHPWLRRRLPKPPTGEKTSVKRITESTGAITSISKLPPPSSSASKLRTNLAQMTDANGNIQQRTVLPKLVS
In words: Inhibition test on activity of DYRK family, mobility shift assay (MSA), DYRK2. The note with it: ATP 40 μM, FITC-labeled DYRKtide peptide substrate, room temperature 1 hour; for IC50: read-out: Inhibitory Activity 2 (IC50 against DYRK2). The procedure, abridged:
as §1

As usually defined, the IC50 is the concentration that inhibits the measured activity by half. Take `CC#CC1CNC(=O)N1c1nc2c(ccc3nn(C)cc32)s1` (racemic) [Example 51, (RS)-1-(7-methyl-7H-thiazolo[4,5-e]indazol-2-yl)-5-(prop-1-yn-1-yl)imidazolidin-2-one]: the half-inhibitory concentration (IC50) in assay [1] and in assay [3] was 100 to 1000 nM in each case. Moreover, in assay [2], the “Inhibitory Activity 1a (IC50 against DYRK1A)” value (“Inhibitory Activity 1a” for short) is “* * *”.
Consider `CC#C[C@H]1[C@H](CF)NC(=O)N1c1nc2c3c(ccc2s1)OCC3` (single isomer, unassigned) [Example 78, trans-1-(7,8-dihydrobenzofuro[4,5-d]thiazol-2-yl)-4-(fluoromethyl)-5-(prop-1-yn-1-yl)imidazolidin-2-one], for which the IC50 is 100 to 1000 nM in assay [1] and less than 10 nM in assay [2]. Further, the “Inhibitory Activity 2 (IC50 against DYRK2)” value in assay [3] is listed as “* *”.
On to `O=C1NCC(C#CC2CC2)N1c1nc2c3c(ccc2s1)OCC3` (racemic) [Example 21, (RS)-5-(cyclopropylethynyl)-1-(7,8-dihydrobenzofuro[4,5-d]thiazol-2-yl)imidazolidin-2-one], for which the IC50 in assay [1] was 100 to 1000 nM; in assay [3], not below 1000 nM. Besides, in assay [2], the “Inhibitory Activity 1a” value was “* * *”.
In the case of `CC#CC1CNC(=O)N1c1nc2c3c(ccc2s1)OCCO3` (single isomer, unassigned) [Example 59, 1-(7,8-dihydro-[1,4]dioxino[2′,3′:5,6]benz[1,2-d]thiazol-2-yl)-5-(prop-1-yn-1-yl)imidazolidin-2-one], the 50% inhibitory concentration (IC50) in assay [1], in assay [2] and in assay [3] was not below 1000 nM throughout.
For the molecule `CC#C[C@H]1[C@H]([C@H](C)O)NC(=O)N1c1nc2c3c(ccc2s1)OCC3` [Example 83, (4R,5S)-1-(7,8-dihydrobenzofuro[4,5-d]thiazol-2-yl)-4-((S)-1-hydroxyethyl)-5-(prop-1-yn-1-yl)imidazolidin-2-one], the half-inhibitory concentration (IC50) is not below 1000 nM in assay [1], 10 to 100 nM in assay [2] and not below 1000 nM in assay [3].
Regarding `CC#C[C@@H]1[C@H](CC)NC(=O)N1c1nc2c3c(ccc2s1)OCC3` (relative stereo) [Example 73, cis-1-(7,8-dihydrobenzofuro[4,5-d]thiazol-2-yl)-4-ethyl-5-(prop-1-yn-1-yl)imidazolidin-2-one], the IC50 in assay [1] and in assay [3] was 100 to 1000 nM each time. In addition, the “Inhibitory Activity 1a” value in assay [2] is on record as “* * *”.
For the molecule `CC#C[C@H]1[C@H](C(C)C)NC(=O)N1c1nc2c3c(ccc2s1)OCC3` [Example 67, (4S,5S)-1-(7,8-dihydrobenzofuro[4,5-d]thiazol-2-yl)-4-isopropyl-5-(prop-1-yn-1-yl)imidazolidin-2-one], the 50% inhibitory concentration (IC50) in assay [1], in assay [2] and in assay [3] was not below 1000 nM throughout.
With `CC#CC1CNC(=O)N1c1nc2c3c(ccc2s1)OCC(C)N3C` (racemic) [Example 40, (RS)-1-((RS)-8,9-dimethyl-8,9-dihydro-7H-thiazolo[4′,5′:3,4]benz[1,2-b][1,4]oxazin-2-yl)-5-(prop-1-yn-1-yl)imidazolidin-2-one], the half-maximal inhibitory concentration (IC50) in assay [1] and in assay [3] was 100 to 1000 nM each time. Moreover, the “Inhibitory Activity 1a” value in assay [2] is “* * *”.
Consider `CC#C[C@H]1[C@H](CC)NC(=O)N1c1nc2c3c(ccc2s1)OCC3` (single isomer, unassigned) [Example 71, trans-1-(7,8-dihydrobenzofuro[4,5-d]thiazol-2-yl)-4-ethyl-5-(prop-1-yn-1-yl)imidazolidin-2-one], for which the IC50 in assay [1] is 100 to 1000 nM; in assay [3] it was not below 1000 nM. Besides, the “Inhibitory Activity 1a” value in assay [2] is reported as “* * *”.
With `CC#C[C@H]1[C@H](CC)NC(=O)N1c1nc2c3c(ccc2s1)OCC3` (single isomer, unassigned) [Example 72, trans-1-(7,8-dihydrobenzofuro[4,5-d]thiazol-2-yl)-4-ethyl-5-(prop-1-yn-1-yl)imidazolidin-2-one], the IC50 in assay [1] is not below 1000 nM; in assay [2], 100 to 1000 nM; in assay [3], not below 1000 nM.
As to `CC#CC1CNC(=O)N1c1nc2c3c(ccc2s1)OCCN3CCO` (racemic) [Example 41, (RS)-1-[9-(2-hydroxyethyl)-8,9-dihydro-7H-thiazolo[4′,5′:3,4]benz[1,2-b][1,4]oxazin-2-yl]-5-(prop-1-yn-1-yl)imidazolidin-2-one], the IC50 in assay [1] and in assay [3] was 100 to 1000 nM each time. In assay [2], the “Inhibitory Activity 1a” value is “* * *”.
On to `CC#CC1CNC(=O)N1c1nc2c(ccc3ocnc32)s1` (single isomer, unassigned) [Example 52, 5-(prop-1-yn-1-yl)-1-(thiazolo[5′,4′:5,6]benz[1,2-d]oxazol-7-yl)imidazolidin-2-one], for which the half-inhibitory concentration (IC50) in assay [1] is 100 to 1000 nM; in assay [3] it was not below 1000 nM. Also, in assay [2], the “Inhibitory Activity 1a” value is recorded as “* * *”.
Regarding `CC#CC1CNC(=O)N1c1nc2c3c(ccc2s1)OCCN3CCN1CCN(C)CC1` (racemic) [Example 44, (RS)-1-{9-[2-(4-methylpiperazin-1-yl)ethyl]-8,9-dihydro-7H-thiazolo[4′,5′:3,4]benz[1,2-b][1,4]oxazin-2-yl}-5-(prop-1-yn-1-yl)imidazolidin-2-one], the IC50 in assay [1], in assay [2] and in assay [3] was not below 1000 nM each time.
Take `CC#CC1CNC(=O)N1c1nc2c(ccc3ocnc32)s1` (single isomer, unassigned) [Example 53, 5-(prop-1-yn-1-yl)-1-(thiazolo[5′,4′:5,6]benz[1,2-d]oxazol-7-yl)imidazolidin-2-one]: the IC50 is not below 1000 nM in assay [1], 100 to 1000 nM in assay [2] and not below 1000 nM in assay [3].
For the molecule `CC#C[C@H]1[C@H](COC)NC(=O)N1c1nc2c3c(ccc2s1)OCC3` (single isomer, unassigned) [Example 76, trans-1-(7,8-dihydrobenzofuro[4,5-d]thiazol-2-yl)-4-(methoxymethyl)-5-(prop-1-yn-1-yl)imidazolidin-2-one], the IC50 in assay [1] and in assay [3] was not below 1000 nM each time. The “Inhibitory Activity 1a” value in assay [2] was “* *”.
For `COCC#CC1CNC(=O)N1c1nc2c3c(ccc2s1)OCC3` (racemic) [Example 20, (RS)-1-(7,8-dihydrobenzofuro[4,5-d]thiazol-2-yl)-5-(3-methoxyprop-1-yn-1-yl)imidazolidin-2-one], the values for the 50% inhibitory concentration (IC50) in assay [1], in assay [2] and in assay [3] were not below 1000 nM, 100 to 1000 nM and not below 1000 nM, respectively.
Regarding `C#CC1CNC(=O)N1c1nc2c3c(ccc2s1)OCC3` (single isomer, unassigned) [Example 14, 1-(7,8-dihydrobenzofuro[4,5-d]thiazol-2-yl)-5-ethynylimidazolidin-2-one], the IC50 in assay [1] and in assay [3] was 100 to 1000 nM in each case. In addition, the “Inhibitory Activity 1a” value in assay [2] is “* *”.
Take `CC#C[C@@H]1[C@H](COC)NC(=O)N1c1nc2c3c(ccc2s1)OCC3` (single isomer, unassigned) [Example 75, cis-1-(7,8-dihydrobenzofuro[4,5-d]thiazol-2-yl)-4-(methoxymethyl)-5-(prop-1-yn-1-yl)imidazolidin-2-one]: the figures for the IC50 in assay [1], in assay [2] and in assay [3] were not below 1000 nM, 100 to 1000 nM and not below 1000 nM, respectively.
For the molecule `CC#CC1CNC(=O)N1c1nc2c(ccc3nccn32)s1` (racemic) [Example 6, (RS)-1-(imidazo[1,2-a]thiazolo[5,4-e]pyridin-2-yl)-5-(prop-1-yn-1-yl)imidazolidin-2-one], the IC50 in assay [1] and in assay [3] was 100 to 1000 nM throughout. The “Inhibitory Activity 1a” value in assay [2] was “* * *”.
